Measurements as given in patent publication US20100209345A1, “Fluorinated Ligands for Targeting Peripheral Benzodiazepine Receptors” (Australian Nuclear Science & Technology Organisation, priority 2006, published 2010).

What was measured:
[1] = Biodistribution of 18F-labelled tracers in rats; format: in vivo
How it was run: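 Sprague-Dawley rats received 18F tracer, and brain and peripheral tissues were analysed at 15 and 30 min and 1 and 4 h post-injection. For specificity, rats were pretreated 5 min beforehand with PK11195 or Ro 5-4864 (PBR) or flumazenil (CBR), each at 1 mg/kg.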

[2] = target: T1, peripheral benzodiazepine binding site (Rattus norvegicus, UniProt P16257); assay: In vitro binding, [3H]-PK11195, kidney membrane preparation; settings: PBR IC50 (nM), [3H]-PK11195 (2 nM), 4° C., 1 h
T1 construct: diluted kidney membrane preparation (200 μg); from tissue; host or cells: kidney membrane preparation
Protocol: Non-specific binding was determined with PK11195 (10 μM).
Non-specific binding was determined with Flumazenil (20 μM). In both cases, incubations were terminated by rapid filtration through Whatman GF/B glass fibre. Filters were immediately washed 3 times with 5 mL ice-cold 50 mM Tris/HCl at pH 7.4. Filters were counted in a β-scintillation counter (Packard) to measure the amount of bound radioactivity. The IC50 of the compounds for the peripheral benzodiazepine binding site and the central benzodiazepine receptor were calculated using Kell 6 software.

[3] = LogP HPLC
[4] = SD rats, 15 min, decay correction not stated
[5] = SD rats, 4 hours, decay correction not stated
[6] = rats, 15 min, corrected for decay of 18F
[7] = rats, 15 min, not corrected for decay of 18F
[8] = rats, 30 min, corrected for decay of 18F
[9] = rats, 30 min, not corrected for decay of 18F
[10] = rats, 60 min (1 hour), not corrected for decay of 18F
[11] = rats, 60 min, corrected for decay of 18F
[12] = rats, 4 hours, corrected for decay of 18F
[13] = rats, 4 hours, not corrected for decay of 18F

With `CCN(CC)C(=O)Cc1c(-c2ccc(OCCF)cc2)nc2ccc(Cl)cn12` [PBR102, 2-(2-(4-(2-fluoroethoxy)phenyl)-6-chloroimidazo[1,2-a]pyridin-3-yl)-N,N-diethylacetamide] the “Biodistribution: Bone” value [1, 4] was 0.4 % ID/g, the “Biodistribution: Kidney” value [1, 4] was 4.5 % ID/g and the “Biodistribution: Olfactory bulbs” value [1, 4] was 0.56 % ID/g. The “Biodistribution: Adrenals” value ([1]; SD rats, 30 min, decay correction not stated) was 9 % ID/g, the “Biodistribution: Adrenals” value [1, 5] was 11 % ID/g and the “Biodistribution: Bone” value [1, 5] was 1.0 % ID/g. The “Biodistribution: Kidney” value [1, 5] was 1.3 % ID/g, the “Biodistribution: Olfactory bulbs” value [1, 5] was 0.40 % ID/g and the “Blood activity level / concentration in the blood over the 4 h study period” value ([1]; SD rats, throughout 15 min to 4 h) was 0.20%. For the same molecule, the “Biodistribution: Bone” value [1, 6] was 0.46 ± 0.04 % ID/g, the “Biodistribution: Heart” value [1, 6] was 4.35 ± 0.33 % ID/g and the “Biodistribution: Lungs” value [1, 6] was 14.30 ± 1.45 % ID/g. The “Biodistribution: Skin” value [1, 6] was 0.24 ± 0.03 % ID/g, the “Biodistribution: Adrenals” value [1, 7] was 8.30 ± 2.13 % ID/g and the “Biodistribution: Bladder” value [1, 7] was 0.59 ± 0.14 % ID/g. The “Biodistribution: Blood” value [1, 7] was 0.25 ± 0.06 % ID/g, the “Biodistribution: Bone” value [1, 7] was 0.56 ± 0.07 % ID/g and the “Biodistribution: Brain” value [1, 7] was 0.24 ± 0.03 % ID/g. The “Biodistribution: GIT” value [1, 7] was 0.82 ± 0.11 % ID/g, the “Biodistribution: Heart” value [1, 7] was 5.23 ± 0.33 % ID/g and the “Biodistribution: Kidney” value [1, 7] was 3.90 ± 0.53 % ID/g. The “Biodistribution: Liver” value [1, 7] was 0.75 ± 0.21 % ID/g, the “Biodistribution: Lungs” value [1, 7] was 17.25 ± 1.70 % ID/g and the “Biodistribution: Muscle” value [1, 7] was 0.49 ± 0.03 % ID/g. For the same molecule, the “Biodistribution: Olfactory bulbs” value [1, 7] was 0.68 ± 0.12 % ID/g, the “Biodistribution: Pancreas” value [1, 7] was 1.74 ± 0.22 % ID/g and the “Biodistribution: Skin” value [1, 7] was 0.29 ± 0.05 % ID/g. For the same molecule, the “Biodistribution: Spleen” value [1, 7] was 5.35 ± 0.89 % ID/g, the “Biodistribution: Stomach” value [1, 7] was 0.80 ± 0.19 % ID/g and the “Biodistribution: Testes” value [1, 7] was 0.22 ± 0.02 % ID/g. For the same molecule, the “Biodistribution: Thymus” value [1, 7] was 0.68 ± 0.17 % ID/g, the “Biodistribution: Thyroid” value [1, 7] was 7.74 ± 1.90 % ID/g and the “Biodistribution: Bone” value [1, 8] was 0.52 ± 0.05 % ID/g. For the same molecule, the “Biodistribution: Heart” value [1, 8] was 4.44 ± 0.26 % ID/g, the “Biodistribution: Lungs” value [1, 8] was 12.10 ± 1.98 % ID/g and the “Biodistribution: Skin” value [1, 8] was 0.31 ± 0.03 % ID/g. The “Biodistribution: Adrenals” value [1, 9] was 9.75 ± 1.53 % ID/g, the “Biodistribution: Bladder” value [1, 9] was 0.67 ± 0.16 % ID/g and the “Biodistribution: Blood” value [1, 9] was 0.21 ± 0.03 % ID/g. The “Biodistribution: Bone” value [1, 9] was 0.64 ± 0.12 % ID/g, the “Biodistribution: Brain” value [1, 9] was 0.20 ± 0.04 % ID/g and the “Biodistribution: GIT” value [1, 9] was 1.07 ± 0.26 % ID/g. For the same molecule, the “Biodistribution: Heart” value [1, 9] was 5.41 ± 0.71 % ID/g, the “Biodistribution: Kidney” value [1, 9] was 3.95 ± 1.01 % ID/g and the “Biodistribution: Liver” value [1, 9] was 0.63 ± 0.21 % ID/g. For the same molecule, the “Biodistribution: Lungs” value [1, 9] was 14.80 ± 3.67 % ID/g, the “Biodistribution: Muscle” value [1, 9] was 0.46 ± 0.08 % ID/g and the “Biodistribution: Olfactory bulbs” value [1, 9] was 0.44 ± 0.05 % ID/g. For the same molecule, the “Biodistribution: Pancreas” value [1, 9] was 1.42 ± 0.45 % ID/g, the “Biodistribution: Skin” value [1, 9] was 0.37 ± 0.05 % ID/g and the “Biodistribution: Spleen” value [1, 9] was 4.68 ± 0.90 % ID/g. For the same molecule, the “Biodistribution: Stomach” value [1, 9] was 0.71 ± 0.21 % ID/g, the “Biodistribution: Testes” value [1, 9] was 0.29 ± 0.05 % ID/g and the “Biodistribution: Thymus” value [1, 9] was 0.81 ± 0.06 % ID/g. The “Biodistribution: Thyroid” value [1, 9] was 10.70 ± 2.08 % ID/g, the “Biodistribution: Adrenals” value [1, 10] was 7.88 ± 1.86 % ID/g and the “Biodistribution: Bladder” value [1, 10] was 0.60 ± 0.11 % ID/g. The “Biodistribution: Blood” value [1, 10] was 0.20 ± 0.03 % ID/g, the “Biodistribution: Bone” value [1, 10] was 0.73 ± 0.13 % ID/g and the “Biodistribution: Brain” value [1, 10] was 0.20 ± 0.03 % ID/g. The “Biodistribution: GIT” value [1, 10] was 1.09 ± 0.13 % ID/g, the “Biodistribution: Heart” value [1, 10] was 5.32 ± 0.74 % ID/g and the “Biodistribution: Kidney” value [1, 10] was 3.10 ± 0.51 % ID/g. For the same molecule, the “Biodistribution: Liver” value [1, 10] was 0.40 ± 0.04 % ID/g, the “Biodistribution: Lungs” value [1, 10] was 13.44 ± 2.71 % ID/g and the “Biodistribution: Muscle” value [1, 10] was 0.39 ± 0.07 % ID/g. The “Biodistribution: Olfactory bulbs” value [1, 10] was 0.52 ± 0.05 % ID/g, the “Biodistribution: Pancreas” value [1, 10] was 0.88 ± 0.18 % ID/g and the “Biodistribution: Skin” value [1, 10] was 0.43 ± 0.07 % ID/g. The “Biodistribution: Spleen” value [1, 10] was 3.89 ± 0.54 % ID/g, the “Biodistribution: Stomach” value [1, 10] was 0.52 ± 0.13 % ID/g and the “Biodistribution: Testes” value [1, 10] was 0.37 ± 0.06 % ID/g. For the same molecule, the “Biodistribution: Thymus” value [1, 10] was 0.91 ± 0.16 % ID/g, the “Biodistribution: Thyroid” value [1, 10] was 11.55 ± 4.24 % ID/g and the “Biodistribution: Bone” value [1, 11] was 0.64 ± 0.07 % ID/g. The “Biodistribution: Heart” value [1, 11] was 4.62 ± 0.27 % ID/g, the “Biodistribution: Lungs” value [1, 11] was 11.63 ± 1.52 % ID/g and the “Biodistribution: Skin” value [1, 11] was 0.37 ± 0.03 % ID/g. For the same molecule, the “Biodistribution: Bone” value [1, 12] was 1.01 ± 0.09 % ID/g, the “Biodistribution: Heart” value [1, 12] was 2.82 ± 0.15 % ID/g and the “Biodistribution: Lungs” value [1, 12] was 8.09 ± 1.14 % ID/g. The “Biodistribution: Skin” value [1, 12] was 0.49 ± 0.03 % ID/g, the “Biodistribution: Adrenals” value [1, 13] was 9.77 ± 2.42 % ID/g and the “Biodistribution: Bladder” value [1, 13] was 1.08 ± 0.14 % ID/g. The “Biodistribution: Blood” value [1, 13] was 0.26 ± 0.03 % ID/g, the “Biodistribution: Bone” value [1, 13] was 1.22 ± 0.22 % ID/g and the “Biodistribution: Brain” value [1, 13] was 0.23 ± 0.03 % ID/g. The “Biodistribution: GIT” value [1, 13] was 1.43 ± 0.34 % ID/g, the “Biodistribution: Heart” value [1, 13] was 3.38 ± 0.44 % ID/g and the “Biodistribution: Kidney” value [1, 13] was 1.61 ± 0.29 % ID/g. For the same molecule, the “Biodistribution: Liver” value [1, 13] was 0.34 ± 0.05 % ID/g, the “Biodistribution: Lungs” value [1, 13] was 10.26 ± 1.09 % ID/g and the “Biodistribution: Muscle” value [1, 13] was 0.27 ± 0.03 % ID/g. For the same molecule, the “Biodistribution: Olfactory bulbs” value [1, 13] was 0.50 ± 0.13 % ID/g, the “Biodistribution: Pancreas” value [1, 13] was 0.49 ± 0.12 % ID/g and the “Biodistribution: Skin” value [1, 13] was 0.59 ± 0.06 % ID/g. The “Biodistribution: Spleen” value [1, 13] was 2.29 ± 0.50 % ID/g, the “Biodistribution: Stomach” value [1, 13] was 0.49 ± 0.13 % ID/g and the “Biodistribution: Testes” value [1, 13] was 0.52 ± 0.06 % ID/g. The “Biodistribution: Thymus” value [1, 13] was 1.21 ± 0.27 % ID/g, the “Biodistribution: Thyroid” value [1, 13] was 8.29 ± 3.22 % ID/g and the IC50 [2] was 13.2 nM. The chromatographic logP [3] was 2.7 ± 0.09.
